This is an account of results in PubChem BioAssay (NCI).

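Tested at 5 concentrations; 48 h exposure; 96-well plates; endpoints linearly interpolated, else capped at highest concentration. TGI: concentration producing complete growth inhibition.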

The subject of the first assay is MDA-MB-231 breast. As to the kind of experiment: inhibition of tumour cell growth, NCI panel, 48 h.
Compound `COc1cc2c(c(O)c1C)C(=O)C(Cl)=CC2=O` came in with a TGI of 27.8 µM.

For a further assay, the system named is HOP-18 NSCLC. Put plainly: inhibition of tumour cell growth, NCI panel, 48 h.
As to `Cc1cccc(C(C)(C)C)c1NC(=O)C(=O)Cc1nc2ccccc2s1`, the TGI is over 100 µM.
Turning to `CCC1CCC2CCCC(C)N12` (stereo not drawn), the TGI is over 100 µM.
Compound `C#CC(C)(C)Oc1cc(O)c2c(=O)c3ccccc3n(C)c2c1` gave a TGI of over 100 µM.
In turn, `CN1CCCNCCN(CCc2ccccn2)CCCN(C)CC1` showed a TGI of over 100 µM.
Same read-out and setting: for `CCOC(=O)CCCO` the value was over 100 µM; for `COC(=O)c1c(OC)cccc1C(=O)O`, over 100 µM; for `CC1=CCCC(OC(N)=O)C1` (stereo not drawn), over 100 µM.
On the same count and under the same terms, the figure for `Cc1c(C(=O)/C=C/c2cccc3ccccc23)[n+](=O)c2ccccc2n1[O-]` is 28.6 µM; for `CC(=O)/C=C/c1cccc(N=S)c1` it is over 100 µM; for `CC1=C[C@@H]2Cc3occc3C(C)(C)[C@@H]2CC1` it is 54 µM.
Same read-out and setting: the figure for `C/C(=N\NC(N)=S)c1ccc(C)cc1C` is over 100 µM.
Compound `O=C(Nc1ccccc1[N+](=O)[O-])c1ccccc1` came in with a TGI of over 100 µM.
Take `COc1cc2c(cc1O)[C@H](Cc1ccc(Oc3cc(C[C@H]4c5cc(OC)c(OC)cc5CCN4C)ccc3OC)cc1)NCC2`: the TGI came out at 32.7 µM.
Still for that read-out and setting: for `OCc1c(-c2cccc3ccccc23)sc(-c2cccc3ccccc23)c1CO` the value was 26.4 µM; for `COc1cc2c(c(O)c1C)C(=O)C(Cl)=CC2=O`, 30.1 µM; for `C[Si](C)(C)c1ccc(CC2(Cc3ccc([Si](C)(C)C)cc3)CCNC2)cc1`, 9.12 µM.
For the compound `Cc1cc(C)nc(NS(=O)(=O)c2ccc(NC(=O)c3cccc4c(=O)c5ccccc5[nH]c34)cc2)n1`, the TGI was found to be 47.2 µM.
Same read-out and setting: for `CCCCCCCCCCCCCCC1OC(=O)c2ccccc21` (stereo not drawn) the value was over 100 µM; for `CN(C)CCNC(=O)c1cccc2nc3c(Cl)cccc3nc12`, over 88 µM; for `CC(C)(C)C1=NC(S)NC(CCC(=O)Nc2ccccc2[N+](=O)[O-])=C1` (stereo not drawn), over 100 µM.

For another assay, the system named is MDA-MB-435. Put plainly: inhibition of tumour cell growth, NCI panel, 48 h.
As to `COc1cc2c(c(O)c1C)C(=O)C(Cl)=CC2=O`, the TGI is 16.4 µM.

A further assay relates to KM20L2 colon. Put plainly: inhibition of tumour cell growth, NCI panel, 48 h.
In the case of `Cc1cccc(C(C)(C)C)c1NC(=O)C(=O)Cc1nc2ccccc2s1`, the TGI is over 100 µM.
Compound `CCC1CCC2CCCC(C)N12` (stereo not drawn) showed a TGI of over 100 µM.
`C#CC(C)(C)Oc1cc(O)c2c(=O)c3ccccc3n(C)c2c1`: the TGI was over 100 µM.
The compound `CN1CCCNCCN(CCc2ccccn2)CCCN(C)CC1` showed a TGI of over 100 µM.
In turn, `CCOC(=O)CCCO` showed a TGI of over 100 µM.
The same measure, in the same setting: for `COC(=O)c1c(OC)cccc1C(=O)O` the value was over 100 µM.
Regarding `CC1=CCCC(OC(N)=O)C1` (stereo not drawn), the TGI is over 100 µM.
Take `Cc1c(C(=O)/C=C/c2cccc3ccccc23)[n+](=O)c2ccccc2n1[O-]`: the TGI came to 27.9 µM.
`CC(=O)/C=C/c1cccc(N=S)c1` showed a TGI of 37 µM.
In turn, `CC1=C[C@@H]2Cc3occc3C(C)(C)[C@@H]2CC1` displayed a TGI of 33.8 µM.
Consider `C/C(=N\NC(N)=S)c1ccc(C)cc1C`, for which the TGI is over 100 µM.
Same read-out and setting: the figure for `O=C(Nc1ccccc1[N+](=O)[O-])c1ccccc1` is over 100 µM; for `COc1ccc(/C=C(/C(=O)O)c2cc(OC)c(OC)c(OC)c2)cc1` it is 98.2 µM.
The same measure, in the same setting: for `COc1cc2c(cc1O)[C@H](Cc1ccc(Oc3cc(C[C@H]4c5cc(OC)c(OC)cc5CCN4C)ccc3OC)cc1)NCC2` the value was 22.7 µM; for `OCc1c(-c2cccc3ccccc23)sc(-c2cccc3ccccc23)c1CO`, 24.6 µM.
Still for that read-out and setting: for `COc1cc2c(c(O)c1C)C(=O)C(Cl)=CC2=O` the value was 49.1 µM; for `COc1cc2c(cc1OC)C1C=NC(C(=O)O)(C2)c2ccccc21` (stereo not drawn), over 100 µM; for `C[Si](C)(C)c1ccc(CC2(Cc3ccc([Si](C)(C)C)cc3)CCNC2)cc1`, 3.93 µM.
`Cc1cc(C)nc(NS(=O)(=O)c2ccc(NC(=O)c3cccc4c(=O)c5ccccc5[nH]c34)cc2)n1` had a TGI of 40.5 µM.
The same measure, in the same setting: for `CCCCCCCCCCCCCCC1OC(=O)c2ccccc21` (stereo not drawn) the value was over 100 µM.
`CN(C)CCNC(=O)c1cccc2nc3c(Cl)cccc3nc12` showed a TGI of 32.2 µM.
Still for that read-out and setting: the figure for `CC(C)(C)C1=NC(S)NC(CCC(=O)Nc2ccccc2[N+](=O)[O-])=C1` (stereo not drawn) is over 100 µM.

In a further assay the test system is XF 498 CNS. Put plainly: inhibition of tumour cell growth, NCI panel, 48 h.
On to `CCC1CCC2CCCC(C)N12` (stereo not drawn), for which the TGI was over 100 µM.
The same measure, in the same setting: the figure for `O=C1CC[C@H]2CNC(=O)C[C@H]2C1` is over 100 µM; for `C#CC(C)(C)Oc1cc(O)c2c(=O)c3ccccc3n(C)c2c1` it is over 100 µM.
As for `CN1CCCNCCN(CCc2ccccn2)CCCN(C)CC1`, the TGI was over 100 µM.
`CCOC(=O)CCCO` came in with a TGI of over 100 µM.
`CC1=CCCC(OC(N)=O)C1` (stereo not drawn) came in with a TGI of over 100 µM.
On to `CC(=O)/C=C/c1cccc(N=S)c1`, for which the TGI was over 100 µM.
Same read-out and setting: the figure for `CC1=C[C@@H]2Cc3occc3C(C)(C)[C@@H]2CC1` is 29.3 µM; for `C/C(=N\NC(N)=S)c1ccc(C)cc1C` it is over 100 µM.
In turn, `O=C(Nc1ccccc1[N+](=O)[O-])c1ccccc1` came in with a TGI of over 100 µM.
For the compound `COc1cc2c(cc1O)[C@H](Cc1ccc(Oc3cc(C[C@H]4c5cc(OC)c(OC)cc5CCN4C)ccc3OC)cc1)NCC2`, the TGI is 24 µM.
On the same count and under the same terms, the figure for `OCc1c(-c2cccc3ccccc23)sc(-c2cccc3ccccc23)c1CO` is 19.3 µM; for `COc1cc2c(c(O)c1C)C(=O)C(Cl)=CC2=O` it is 35.2 µM; for `Cc1cc(C)nc(NS(=O)(=O)c2ccc(NC(=O)c3cccc4c(=O)c5ccccc5[nH]c34)cc2)n1` it is 40.6 µM.
Still for that read-out and setting: for `CN(C)CCNC(=O)c1cccc2nc3c(Cl)cccc3nc12` the value was 11.7 µM.

For another assay, the system named is MDA-N. As to the kind of experiment: inhibition of tumour cell growth, NCI panel, 48 h.
The compound `COc1cc2c(c(O)c1C)C(=O)C(Cl)=CC2=O` showed a TGI of 12.1 µM.

The next assay deals with RXF-631 renal. Put plainly: inhibition of tumour cell growth, NCI panel, 48 h.
In turn, `Cc1cccc(C(C)(C)C)c1NC(=O)C(=O)Cc1nc2ccccc2s1` returned a TGI of over 100 µM.
`CCC1CCC2CCCC(C)N12` (stereo not drawn) had a TGI of over 100 µM.
Still for that read-out and setting: the figure for `O=C1CC[C@H]2CNC(=O)C[C@H]2C1` is over 100 µM; for `C#CC(C)(C)Oc1cc(O)c2c(=O)c3ccccc3n(C)c2c1` it is over 100 µM.
Same read-out and setting: for `CN1CCCNCCN(CCc2ccccn2)CCCN(C)CC1` the value was over 100 µM; for `CCOC(=O)CCCO`, over 100 µM.
Still for that read-out and setting: the figure for `COC(=O)c1c(OC)cccc1C(=O)O` is over 100 µM; for `CC1=CCCC(OC(N)=O)C1` (stereo not drawn) it is over 100 µM.
`Cc1c(C(=O)/C=C/c2cccc3ccccc23)[n+](=O)c2ccccc2n1[O-]` showed a TGI of 56.4 µM.
`CC(=O)/C=C/c1cccc(N=S)c1` gave a TGI of over 100 µM.
Still for that read-out and setting: for `CC1=C[C@@H]2Cc3occc3C(C)(C)[C@@H]2CC1` the value was 38.5 µM; for `C/C(=N\NC(N)=S)c1ccc(C)cc1C`, over 100 µM.
In the case of `O=C(Nc1ccccc1[N+](=O)[O-])c1ccccc1`, the TGI is over 100 µM.
Same read-out and setting: for `COc1ccc(/C=C(/C(=O)O)c2cc(OC)c(OC)c(OC)c2)cc1` the value was over 100 µM; for `COc1cc2c(cc1O)[C@H](Cc1ccc(Oc3cc(C[C@H]4c5cc(OC)c(OC)cc5CCN4C)ccc3OC)cc1)NCC2`, 32 µM.
As for `OCc1c(-c2cccc3ccccc23)sc(-c2cccc3ccccc23)c1CO`, the TGI stood at 37.9 µM.
On the same count and under the same terms, for `COc1cc2c(c(O)c1C)C(=O)C(Cl)=CC2=O` the value was 17.6 µM; for `COc1cc2c(cc1OC)C1C=NC(C(=O)O)(C2)c2ccccc21` (stereo not drawn), over 100 µM; for `C[Si](C)(C)c1ccc(CC2(Cc3ccc([Si](C)(C)C)cc3)CCNC2)cc1`, 5.36 µM.
The same measure, in the same setting: for `Cc1cc(C)nc(NS(=O)(=O)c2ccc(NC(=O)c3cccc4c(=O)c5ccccc5[nH]c34)cc2)n1` the value was over 100 µM; for `CCCCCCCCCCCCCCC1OC(=O)c2ccccc21` (stereo not drawn), over 100 µM; for `CN(C)CCNC(=O)c1cccc2nc3c(Cl)cccc3nc12`, over 100 µM.
Same read-out and setting: for `CC(C)(C)C1=NC(S)NC(CCC(=O)Nc2ccccc2[N+](=O)[O-])=C1` (stereo not drawn) the value was over 100 µM.
